Structures can show the parent of a compound that is named as a salt.
Test system: jejunum
Assay: Transcriptional profiling on Affymetrix GeneChips, single dose, naïve mice: jejunum
Assay type: in vivo, C57BL/6 mice
Conditions: 100MMF-vs-Veh
Description: Treated mice were sacrificed at 2, 7, or 12 hours. Tissues (liver, spleen, kidney, jejunum, cortex, hippocampus, striatum and whole blood) were collected and analyzed by transcriptional profiling on mouse Affymetrix GeneChips.
Tissues (liver, spleen, kidney, jejunum, cortex, hippocampus, striatum and whole blood) were collected and analyzed by transcriptional profiling on mouse Affymetrix GeneChips.
Animals were exposed to CO2 and whole blood collected via cardiac puncture. Two 100 μl aliquots of whole blood were collected in 1.5 mL microcentrifuge tubes and snap frozen in liquid nitrogen. Peripheral (liver, spleen, kidney and jejunum) and CNS brain (cerebellum, hippocampus, striatum and cortex) tissues were harvested and snap frozen in liquid nitrogen, with special care taken to collect tissues of similar size and from the same location. All samples were stored at −80° C. until RNA extraction was conducted.
For RNA preparation, frozen tissues were placed in 2 mL RNAse-free 96-well blocks with 1.5 mL QIAzol Lysis Reagent (QIAgen) and a 3.2 mm stainless steel bead (BioSpec Products, Bartlesville, Okla.). Tissues were disrupted for four cycles of 45 seconds in a Mini-Beadbeater (Biospec Products). RNA was extracted in chloroform and the aqueous phase was mixed with an equal volume of 70% ethanol. Extracted RNA was applied to RNeasy 96 plates and purified by the spin method according to the manufacturer's protocol (RNeasy 96 Universal Tissue Protocol, QIAgen, Hilden Germany).
Automated sample amplifications and biotin labelings were carried out using the NuGEN Ovation RNA Amplification system V2 (Cat #3100), Ovation WB reagent (Cat #1300) and Encore Biotin module (Cat #4200) (NuGEN Technologies, Inc, San Carlos, Calif.) according to manufacturer's recommendations using an Arrayplex automated liquid handler (Beckman Coulter, Indianapolis, Ind.). Two micrograms of biotin labeled sscDNA probe were hybridized to Affymetrix GeneChip Affymetrix HT_MG-430_PM plate arrays with modified conditions as described in Allaire et al. Washing and staining of the hybridized arrays were completed as described in the GeneChip Expression analysis technical manual for HT plate arrays using the Genechip® Array Station (Affymetrix, Santa Clara, Calif.) with modifications as described in Allaire et al. The processed GeneChip® plate arrays were scanned using GeneTitan scanner (Affymetrix, Santa Clara, Calif.).
Affymetrix scans were subject to quality control (QC) measures. These tests included a visual inspection of the distribution of raw signal intensities and an assessment of RNA degradation, relative log expression (RLE), and normalized unsealed standard error (NUSE). All sample scans that passed these QC metrics were included in the analysis.
All CEL files were subjected to GC-content-based Robust Multi-array Average (GCRMA) normalization (version 2.20.0) (Irizarry R A, et al. Nucleic Acids Res 2003; 31:e15; Li C, et al. Genome Biol 2001; 2:[…]0032). Expression levels were log (base 2) transformed.
All calculations and analyses were carried out using R (version 2.11.1) and Bioconductor computational tools (Gentleman R. Springer Science+Business Media 2005).

COC(=O)/C=C/C(=O)O [MMF, monomethyl fumarate]
FC Slc2a1 (1426599_PM_a_at) (2 h): 1.53
FC Slc2a1 (1426600_PM_at) (2 h): 1.68
FC Slc40a1 (1417061_PM_at) (2 h): 2.73
FC Slc48a1 1450410_PM_a_at (2 h): 1.62
FC Slfn2 (1450165_PM_at) (2 h): −1.82
FC Srxn1 (1425351_PM_at) (2 h): 1.77
FC St3gal6 (1449078_PM_at) (2 h): 1.52
FC Tkt (1436605_PM_at) (2 h): 1.73
FC Tnfaip3 1433699_PM_at (2 h): −1.67
FC Tox3 (1436600_PM_at) (2 h): 1.81
FC Ugt2b5 (1419622_PM_at) (2 h): 3.13
FC Ugt2b35 (1439624_PM_at) (2 h): 3.08
FC 1110020G09Rik (1437287_PM_at) (7 h): 1.74
FC 1447411_PM_at (7 h): 1.97
FC 9130221J17Rik (1443159_PM_at) (7 h): 1.61
FC 9430069I07Rik (1431672_PM_at) (7 h): 3.66
FC Abcc2 (1450109_PM_s_at) (7 h): 1.51
FC Abcc3 (1428988_PM_at) (7 h): 2.26
FC Acsm5 (1437662_PM_at) (7 h): 1.71
FC Acss2 (1446542_PM_at) (7 h): 2.06
FC Akr1b8 (1448894_PM_at) (7 h): 14.16
FC Akr1c12 (1450455_PM_s_at) (7 h): 1.58
FC Akr1c13 (1418672_PM_at) (7 h): 1.86
FC Akr1c19 (1455454_PM_at) (7 h): 2.39
FC Aldh1a7 (1418601_PM_at) (7 h): 1.86
FC Areg (1421134_PM_at) (7 h): 2.93
FC Asns 1451095_PM_at (7 h): 1.60
FC Blvrb (1451386_PM_at) (7 h): 1.55
FC Capn13 (1437960_PM_at) (7 h): −1.75
FC Cbr1 (1460196_PM_at) (7 h): 1.83
FC Cbr3 (1427912_PM_at) (7 h): 40.98
FC Ces1e (1419510_PM_at) (7 h): 2.44
FC Ces1f (1424266_PM_s_at) (7 h): 5.19
FC Ces1g (1449486_PM_at) (7 h): 9.24
FC Ddc (1426215_PM_at) (7 h): 2.03
FC Dppa5a (1416552_PM_at) (7 h): 1.88
FC Enkur (1428960_PM_at) (7 h): −1.56
FC Entpd5 (1451765_PM_a_at) (7 h): 1.60
FC Esd (1438488_PM_at) (7 h): 2.15
FC Fam162a (1451385_PM_at) (7 h): 1.67
FC G6pd2 (1422327_PM_s_at) (7 h): 2.06
FC G6pdx (1448354_PM_at) (7 h): 1.76
FC Gclc (1424296_PM_at) (7 h): 2.87
FC Gclc (1455959_PM_s_at) (7 h): 2.48
FC Gm14446 (1435529_PM_at) (7 h): −1.65
FC Gpx2 (1449279_PM_at) (7 h): 1.53
FC Gsr (1421816_PM_at) (7 h): 3.13
FC Gss (1441931_PM_x_at) (7 h): 2.20
FC Gss (1448273_PM_at) (7 h): 2.25
FC Gsta2 (1421040_PM_a_at) (7 h): 9.84
FC Gsta2 (1421041_PM_s_at) (7 h): 1.90
FC Gsta3 (1423436_PM_at) (7 h): 5.71
FC Gsta3 (1423437_PM_at) (7 h): 5.75
FC Gstm1 (1416416_PM_x_at) (7 h): 3.95
FC Gstm1 (1425627_PM_x_at) (7 h): 4.80
FC Gstm1 (1448330_PM_at) (7 h): 4.23
FC Gstm2 (1416411_PM_at) (7 h): 2.09
FC Gstm3 (1427473_PM_at) (7 h): 3.46
FC Gstm3 (1427474_PM_s_at) (7 h): 1.99
FC Gstm4 (1424835_PM_at) (7 h): 5.75
FC Gstm6 (1422072_PM_a_at) (7 h): 2.23
FC Gstm7 (1419072_PM_at) (7 h): 1.97
FC Htatip2 (1451814_PM_a_at) (7 h): 1.68
FC Ifit1 (1450783_PM_at) (7 h): −1.95
FC Matn2 (1419442_PM_at) (7 h): 1.59
FC Matn2 (1455978_PM_a_at) (7 h): 2.21
FC Me1 (1416632_PM_at) (7 h): 2.01
FC Nqo1 (1423627_PM_at) (7 h): 2.63
FC Pgd 1423706_PM_a_at (7 h): 1.55
FC Pgm2 (1451149_PM_at) (7 h): 1.54
FC Pir (1429001_PM_at) (7 h): 5.12
FC Prss8 (1418320_PM_at) (7 h): 1.75
FC Rsad2 (1421009_PM_at) (7 h): −1.84
FC Rsad2 (1436058_PM_at) (7 h): −1.81
FC Rtp4 (1418580_PM_at) (7 h): −1.61
FC Setd4 (1425239_PM_at) (7 h): 2.27
FC Setd4 (1435405_PM_at) (7 h): 1.76
FC Setd4 (1460373_PM_a_at) (7 h): 1.77
FC Slc5a4b (1422757_PM_at) (7 h): 1.79
FC Slc35e3 (1428805_PM_at) (7 h): 1.67
FC Txnrd1 (1424486_PM_a_at) (7 h): 2.07
FC Txnrd1 (1424487_PM_x_at) (7 h): 1.93
FC Ugt2b5 (1419622_PM_at) (7 h): 4.50
FC Ugt2b35 (1439624_PM_at) (7 h): 3.31
FC Ugt2b36 (1455595_PM_at) (7 h): 2.50
FC Acss2 (1446542_PM_at) (12 h): 1.52

From patent US20160115540A1, “PRODRUGS AND DRUGS” (Biogen MA Inc., priority 2013, published 2016)
